Assay results taken from patent publication US20220088121A1, “COMPOSITIONS CONTAINING A PEPTIDE ABLE TO STIMULATE THE GPRC6A-DEPENDENT SIGNALING PATHWAY” (Altergon S.A., priority 2019, published 2022).

Assays:
[1] = tested on: INS-1 rat insulinoma cells; experiment: Insulin release from INS-1 insulinoma cell cultures; assay type: cell-based; conditions: experimental models of cell line cultures
Description: INS-1 rat insulinoma cells, cultured to 90% confluence in 24-well multiwell plates, were stimulated with different combinations of secretagogue agonists for 2 hours at 37° C. under sterile conditions, according to an already validated protocol [Hohmeier Diabetes. […] Stimulation with the phosphodiesterase inhibitor IBMX (Gluc 1 mM+IBMX) represents the maximum secretagogue stimulation and positive control of the experiment. […] Significance: *, ** and ***=P<0.05, 0.01 and 0.001 respectively vs the baseline control.

[2] = tested on: MA-10 mouse Leydig cell tumour cell lines; experiment: Testosterone release from MA-10 mouse Leydig-cell tumour cell cultures; assay type: cell-based; conditions: experimental models of cell line cultures; Example 1: peptide 10^−6M, 12 hours at 37° C. (FIG. 1)
Description: MA-10 mouse Leydig-cell tumour cells, cultured to 90% confluence in 24-well multiwell plates, were stimulated with different agonists for 12 hours at 37° C. under sterile conditions, according to an already validated protocol [Cormier Cell Biol Toxicol. […] The control (CTRL) contained no agonists. The results relate to testosterone release, expressed as ng of testosterone (T) per μg of total protein, obtained from cell extract. […] Significance: *=P<0.05 vs. CTRL.
MA-10 mouse Leydig-cell tumour cells, cultured to 90% confluence in 24-well multiwell plates, were stimulated with different agonists for 12 hours at 37° C. under sterile conditions, according to an already validated protocol [Cormier Cell Biol Toxicol. […] Significance: *, ** and ***=P<0.05, 0.01 and 0.001 respectively vs the baseline control.

Question: Which results are given for NMYLPPVPPPPVVPTF [SEQ ID 1]?
Answer: insulin release [1]: stimulates; testosterone release [2]: stimulates
